These results are taken from paper PMC10026764, “Overcoming the imatinib-resistant BCR-ABL mutants with new ureidobenzothiazole chemotypes endowed with potent and broad-spectrum anticancer activity” (Journal of Enzyme Inhibition and Medicinal Chemistry, 2023).

Several values for one entry are separate records, joined by “and”; a condition that tells them apart may be missing. Identical values can stand only once. Like-named read-outs stand apart in the source and are kept apart here.

One assay relates to K-562 cell line. Also on record: method as in PMID 25881828. Particulars: K-562, single dose 10 μM; cited from earlier work.
The target in assay [1] is T1, BCR-ABL^WT (Homo sapiens, UniProt P00519). Set-up: method as in PMID 25881828. To be noted: reported values ref 19; cited from earlier work.
The target in assay [2] is T2, BCR-ABL^T315I (Homo sapiens, UniProt P00519, T315I).
T2 construct: purchased Reaction Biology Corporation (RBC, Malvern, PA, USA)
To be noted: reported values ref 19; cited from earlier work.

For the next assay, the target named is DDR1 (Homo sapiens, UniProt Q08345). Description: Kinase selectivity test against DDR1. Format: biochemical. As for the experimental part:
On the other hand, to gain certain insights about the kinase selectivity of this array of ureidobenzothiazoles, compounds 2a and 2b were tested against DDR1 (Figure 4). Discoidin domain receptors (DDR1/2) are transmembrane receptor tyrosine kinases (RTKs), activated by fibrillar collagens. DDR1/2 and BCR-ABL share almost 61% sequence similarities in their ATP binding domains. […] This observation points out the merit of these ureidobenzothiazoles over the known BCR-ABL inhibitors in achieving exceptional selectivity towards BCR-ABL.

For the next assay, the system named is leukaemia K-562 cells. Description: MTT antiproliferative assay. Particulars: for GI50: Homo sapiens, K562, 72 h, read-out: GI50 K-562; for SI: selectivity index (GI50 (L132)/GI50 (K562)): MTT, 72 h. Background: Tetrazolium dyes change colour on reduction, which living cells bring about.
In a further assay the test system is L132 normal cell. Description: MTT antiproliferative assay. To be noted: Homo sapiens, L132, 72 h, read-out: GI50 L132.
The target of assay [3] is T2, BCR-ABL^T315I. In words: In vitro kinase screening (RBC), BCR-ABL^T315I. Format: biochemical. Particulars: 10-dose IC50 mode, 3-fold serial dilution, 10 μM ATP.
The target of assay [4] is T1, BCR-ABL^WT. In words: In vitro kinase screening (RBC), BCR-ABL^WT. Particulars: 10-dose IC50 mode, 3-fold serial dilution, 10 μM ATP. The format is biochemical.
The next assay relates to NCI-60 cell lines. Description: NCI-60 single dose SRB assay (panel). The format is cell-based. Particulars: single dose 10 μM. The source says: To gain further insights about the anticancer profile of this new ureidobenzothiazole chemotypes, the structures of all final compounds were submitted to the National Cancer Institute (NCI, Developmental Therapeutics Program, Bethesda, MD, USA). Based on NCI selection criteria, compounds 2b (AK-HW-90), 2e, and 2f were chosen for broad screening against a library of 60 human cancer cell lines, representing nine types of blood and solid cancers. Employing the highly sensitive sulforhodamine B (SRB) assay, compounds 2b, 2e, and 2f were tested initially at a single dose of 10 μM, and their detailed activities on the percentages growth of the NCI-60 cell lines were illustrated in Figure 5, and compared with that observed for the lead benzothiazole AKE-5l.
(In general: Sulforhodamine B stains cellular protein and so reports cell mass.)

Chain of DDR1 (Q08345 19-913, species assumed): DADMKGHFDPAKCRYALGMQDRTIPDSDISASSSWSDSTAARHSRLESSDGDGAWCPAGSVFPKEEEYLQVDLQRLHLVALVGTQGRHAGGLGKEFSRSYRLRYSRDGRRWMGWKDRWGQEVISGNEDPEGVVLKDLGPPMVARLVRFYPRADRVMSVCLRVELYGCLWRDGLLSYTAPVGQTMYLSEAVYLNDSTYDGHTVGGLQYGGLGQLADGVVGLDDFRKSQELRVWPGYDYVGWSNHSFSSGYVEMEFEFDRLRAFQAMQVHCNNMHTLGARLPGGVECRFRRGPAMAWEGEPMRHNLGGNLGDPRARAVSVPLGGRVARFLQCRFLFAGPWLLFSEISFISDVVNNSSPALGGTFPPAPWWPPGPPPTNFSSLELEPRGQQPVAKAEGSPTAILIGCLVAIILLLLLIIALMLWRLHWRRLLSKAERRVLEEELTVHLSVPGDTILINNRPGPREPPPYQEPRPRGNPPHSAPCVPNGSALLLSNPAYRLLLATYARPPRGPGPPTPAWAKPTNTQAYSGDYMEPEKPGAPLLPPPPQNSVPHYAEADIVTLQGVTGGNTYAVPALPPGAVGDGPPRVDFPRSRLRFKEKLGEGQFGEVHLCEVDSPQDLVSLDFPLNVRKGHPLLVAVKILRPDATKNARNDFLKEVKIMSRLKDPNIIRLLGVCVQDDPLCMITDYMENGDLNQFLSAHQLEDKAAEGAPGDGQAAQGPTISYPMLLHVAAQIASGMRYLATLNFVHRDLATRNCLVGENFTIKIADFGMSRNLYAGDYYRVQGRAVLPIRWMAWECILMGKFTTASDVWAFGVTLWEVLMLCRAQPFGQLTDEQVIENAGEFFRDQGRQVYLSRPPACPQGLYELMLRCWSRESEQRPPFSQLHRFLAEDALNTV
From the text for L132 normal cell: (§1) These cellular outcomes define the impact of BCR-ABL inhibition on the proliferation of K-562 cells.
From the text for leukaemia K-562 cells: as §1

For `CNC(=O)c1cc(Oc2ccc3nc(NC(=O)NCCCN4CCN(C)CC4)sc3c2)ccn1` [AKE-5l], in the assay on K-562 cell line, the “% growth” value was 10.22%. Further, the IC50 (in general, the concentration needed to halve the response being measured) was 18.2 nM on BCR-ABL^WT [1] and 39.9 nM on BCR-ABL^T315I [2].

On to `COc1ccccc1-c1ccc2nc(NC(=O)Nc3ccc(N4CCN(C)CC4)cc3)sc2c1` [Compound 2a], for which the half-maximal inhibitory concentration (IC50) against DDR1 is 195 nM; against BCR-ABL^T315I [3], 2 nM and 2.03 nM; at BCR-ABL^WT [4] it was 1.5 nM. Further, the values for the GI50 with leukaemia K-562 cells and with L132 normal cell were 4520 nM and 26800 nM, respectively. The “SI: selectivity index (GI50 (L132)/GI50 (K562))” value in the assay with leukaemia K-562 cells amounted to 5.9.

Consider `COc1ccccc1-c1ccc2nc(NC(=O)Nc3ccc(N4CCOCC4)cc3)sc2c1` [Compound 2c], for which the GI50 (commonly the concentration that inhibits growth by half) was determined as 3820 nM in the assay on leukaemia K-562 cells and 26100 nM in the assay on L132 normal cell. In the assay on leukaemia K-562 cells, the “SI: selectivity index (GI50 (L132)/GI50 (K562))” value was 6.8. In addition, the results for the half-inhibitory concentration (IC50) at BCR-ABL^T315I [3] and at BCR-ABL^WT [4] were 8.11 nM and 2.16 nM, respectively.

In the case of `COc1ccccc1-c1ccc2nc(NC(=O)Nc3cccc(C(F)(F)F)c3)sc2c1` [Compound 2d], in the assay on leukaemia K-562 cells, the GI50 is over 10000 nM.

For the molecule `COc1ccccc1-c1ccc2nc(NC(=O)Nc3ccc(CN4CCOCC4)c(C(F)(F)F)c3)sc2c1` [Compound 2f], the GI50 in the assay on leukaemia K-562 cells is over 10000 nM. Further, the “number of cancer cells with cytostatic growth inhibitory activity (% growth less than 40)” value in the assay on NCI-60 cell lines came to 14 cancer cells. In addition, the IC50 against BCR-ABL^T315I [3] was determined as 226 nM; against BCR-ABL^WT [4] it was 74.6 nM.
